Reference: US20190369111A1, “MOLECULAR KINETICS EVALUATION METHOD AND SCREENING METHOD” (Tokyo University of Science Foundation, priority 2016, published 2019)

Target: endogenous wild-type p53 protein (Homo sapiens, UniProt P04637)
Assay: Degradation of endogenous wild-type p53 protein in HCT116 cells, Western blot analysis
Assay type: cell-based
Set-up: an endogenous wild-type p53 protein and MDM2 protein in HCT116 cells (human large intestine cancer cells); endogenous in cells; host or cells: HCT116 cells
Conditions: 48 hours after addition
Experimental: HCT116 cells were seeded in a 24-well plate at a cell density of 8×10^4 cells/well, and then cultured under conditions of 37° C. and 5 vol % CO2 for 16 hours.
After 16 hours from cell seeding, TIBC-CANDDY_MLN or TIBC was added to HCT116 cells as follows. As a medium, a serum-free medium (37° C.) in which 1 mass % L-glutamine solution (Sigma-Aldrich) was added to D-MEM (high D-glucose, phenol red, sodium pyruvate (Wako Pure Chemical Industries, Ltd.)) was used. It is noted that the L-glutamine solution was added immediately before use. A DMSO solution containing TIBC-CANDDY_MLN or TIBC was mixed with the medium so that the concentration of DMSO was 1 vol %, and added to each well at 500 μL/well, and cultured under conditions of 37° C. and 5 vol % CO2. As a control, DMSO was used.
The medium was removed 48 hours after addition of TIBC-CANDDY_MLN or TIBC, and then PBS was added to wash the cells. […]
After electrophoresis, proteins were transferred to a PVDF membrane (Immobion™-P, Millipore) under conditions of 100 V and 2 hours using a tank-type blotting device and a transfer buffer (25 mM Tris-HCl, 195 mM glycine, 0.01% SDS, 15% methanol). […] Subsequently, the membrane was treated with a chemiluminescence reagent Immobilon™ Western (Millipore), and then chemiluminescence was detected using a lumino image analyzer LAS-3000 (FUJIFILM Corporation).

Sequence of endogenous wild-type p53 protein (P04637 whole entry): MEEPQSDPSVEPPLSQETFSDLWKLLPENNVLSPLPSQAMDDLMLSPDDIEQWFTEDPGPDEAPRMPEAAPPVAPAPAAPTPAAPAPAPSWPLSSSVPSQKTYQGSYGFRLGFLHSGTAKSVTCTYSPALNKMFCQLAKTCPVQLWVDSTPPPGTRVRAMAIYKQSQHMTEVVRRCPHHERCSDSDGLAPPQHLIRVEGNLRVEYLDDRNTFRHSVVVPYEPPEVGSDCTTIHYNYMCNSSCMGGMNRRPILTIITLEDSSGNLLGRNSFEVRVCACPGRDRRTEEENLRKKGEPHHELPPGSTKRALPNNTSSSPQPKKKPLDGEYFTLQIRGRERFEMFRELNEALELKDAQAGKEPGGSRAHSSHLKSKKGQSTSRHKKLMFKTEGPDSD

amount of endogenous wild-type p53 protein: reduced
SMILES: CC(C)C[C@H](NC(=O)CNC(=O)c1cc(Cl)ccc1Cl)C(=O)NCCCCCCC(=O)Nc1ccc(C(=O)/C=C/c2ccc(I)cc2)cc1 [TIBC-CANDDY_MLN]
